This is an account of results in EP4715056A1, “BIO-BASED TRANS-ACONITATE, PREPARATION METHOD THEREFOR AND USE THEREOF” (Qingdao Institute of Bioenergy and Bioprocess Technology, …, priority 2023, dated 2024).

Common to all, as to format: physicochemical
The nature of data set [1]: Compatibility (water value method). Particulars: 2.5 g plasticizer and 25 g acetone titrated with deionized water until turbidity; Table 5. How it is done:
(§1) The aconitates and tributyl citrate prepared in the above examples and comparative examples were added as plasticizers to PVC resin to obtain PVC plastics. The PVC plastics include 100 parts of PVC resin, 35 parts of plasticizer, 2 parts of oxidized polyethylene wax, and 5 parts of octyltin maleate. The above raw materials were mixed and prepared using the same mixing process to obtain finished PVC products. The performance tests were performed on different plasticizers and the obtained PVC finished products in the above examples and comparative examples. […] Three points were selected for each group of samples, each point was tested once, and a median value was taken. • 2. […] Compatibility: tests were performed using a water value method. Since water molecules are polar, the compatibility between the plasticizer and water can characterize the compatibility between the plasticizer and polar materials (PVC, PLA, and nitrile rubber). When a certain plasticizer has good compatibility with water, it has good compatibility with PVC, and vice versa. In the experiment, 2.5 g of plasticizer and 25 g of acetone were added to a beaker, titrated with a burette filled with deionized water, and agitated while titrating until turbidity appears, and the volume of deionized water consumed was recorded. • 4. Glass transition temperature (Tg): the glass transition temperature was tested using a dynamic mechanical analyzer. Test conditions: nitrogen was taken as the carrier gas, at a test temperature range of -40 to 80°C, a heating rate of 3°C/min, and a frequency of 1 Hz.

Data set [2] is described as follows: Residual amounts of fat-soluble and water-soluble pigments (HPLC). Particulars: aconitate/citrate products, Table 4. The method, then:
7. Residual amounts of fat-soluble pigments and water-soluble pigments: • a high-performance liquid chromatograph (HPLC) was used, and the instrument sensitivity and stability of the detector should comply with the provisions of GB/T 16631-2008. Chromatographic column: C18 column; injector: 10 µL micro-syringe; solvent: acetonitrile (HPLC grade); acquisition time: 15 min; mobile phase: 80% acetonitrile (HPLC grade) and 20% deionized water; injection volume: 1 µL; wavelength: 230 nm.
Test: the instrument was adjusted according to the above provisions. After the baseline was stable, 0.2 µL of the sample was injected using a micro-syringe, and the integrator or chromatographic workstation was started at the same time. A pigment concentration-integral area standard curve was established by testing the integral areas of pigments with different concentrations. When the pigment content was measured, the corresponding pigment integral area was automatically given by the instrument, and the pigment concentration was obtained by comparing with the standard curve. The ratio of the pigment concentration to the sample concentration is the pigment content.

A short description of data set [3]: Glass transition temperature (dynamic mechanical analyzer). Conditions: PVC plastic with 35 parts plasticizer; -40 to 80°C, 3°C/min, 1 Hz. The method, then: as §1
Data set [4] can be described thus: Tensile properties (GB/T 1040-2006): tensile modulus at 100%, elongation at break, elastic modulus. Conditions: PVC plastic with 35 parts plasticizer; 50 mm/min, 25°C. The method, then:
as §1

A short description of data set [5]: Chromaticity (platinum-cobalt colorimetry). Conditions: aconitate/citrate products, Table 4; colour comparison at 25°C. How it is done: 3. Chromaticity: preparation of 500# platinum-cobalt colorimetric standard stock solution: 1.2450 g of potassium chloroplatinate and 1.0000 g of cobalt chloride were weighed, with an accuracy of 0.0002 g, the mixture was dissolved in 100 mL of hydrochloric acid, and then diluted to 1000 mL with distilled water. This solution is just the 500# colorimetric standard comparison solution.
Preparation of colorimetric standards below 500#: different amounts of the 500# stock solution was prepared, and diluted with distilled water to the volume of a colorimetric tube to prepare colorimetric standard solutions of any number. The calculation formula is as follows: V = (N×V1)/500 [formula]
In the formula, V is the volume of the 500# standard stock solution taken to prepare the N# colorimetric standard solution, in mL; V1 is the volume of the colorimetric tube used, in mL; and N is the number of the colorimetric standard solution to be prepared.
Color comparison determination was performed at 25°C.

Data set [6] can be described thus: Hardness (Shore hardness tester, GB/T 531-2008). Conditions: PVC plastic: 100 parts PVC resin, 35 parts plasticizer, 2 parts oxidized polyethylene wax, 5 parts octyltin maleate. How it is done: as §1, with “The PVC plastics include 100 parts of PVC resin, 35 parts of plasticizer, 2 parts of oxidized polyethylene wax, and 5 parts of octyltin maleate.” left out
Data set [7] in a line: Acid value (KOH titration). Particulars: aconitate/citrate products, Table 4. How it is done: The aconitates and citrates prepared in the above examples and comparative examples were tested for acid value, purity, chromaticity, yield, triester conversion rate, and water content. […] The mixture was neutralized with 0.02 mol·L^-1 potassium hydroxide aqueous solution until a faint pink color appears, and the consumed volume Vo was recorded. 1 g of the sample (accurate to 0.01 g) was weighed using a ground-neck conical flask, then one portion of the above neutralized solution was added. After the sample was completely dissolved, the sample was titrated with 0.02 mol·L^-1 potassium hydroxide-ethanol standard titration solution (the titration should be completed within 30 seconds) until a faint pink color appeared and persisted for 5 seconds without fading, which was considered as an end point. The consumed volume V was recorded. […] Chromatographic column: C18 column; injector: 10 µL micro-syringe; solvent: acetonitrile (HPLC grade); acquisition time: 15 min; mobile phase: 80% acetonitrile (HPLC grade) and 20% deionized water; injection volume: 1 µL; wavelength: 230 nm.

The nature of data set [8]: Water content (Karl Fischer moisture meter). Conditions: aconitate/citrate products, Table 4. An excerpt:
6. Water content: a Karl Fischer moisture meter is used to test the water content (retained to two decimal places).

Regarding `CCCCOC(=O)C=C(CC(=O)OCCCC)C(=O)OCCCC` [Example 23, tributyl aconitate], the Compatibility in data set [1] amounted to 13.1 mL. In addition, in data set [2], the “Residual amounts of fat-soluble pigments” value is given as 1356 ppm and the “Residual amounts of water-soluble pigments” value is 842 ppm. The same molecule came in with a Tg in data set [3] of 28.4 °C. For the same molecule, in data set [4], the Elastic modulus is given as 128.7 MPa, the Elongation at break is listed as 239.4% and the “Tensile modulus at 100%” value worked out at 15.6 MPa. This molecule gave a Chromaticity in data set [5] of 60 Pt-Co. Also, in data set [6], the “Hardness/Shore D” value was found to be 43 Shore D. The Acid value in data set [7] came to 0.05 KOH/g. The Water content in data set [8] is given as 0.03%.
For the molecule `CCCCOC(=O)C=C(CC(=O)OCCCC)C(=O)OCCCC` [Example 24, tributyl aconitate], the Compatibility in data set [1] was found to be 13.1 mL. Further, in data set [2], the “Residual amounts of fat-soluble pigments” value is listed as 1386 ppm and the “Residual amounts of water-soluble pigments” value was determined as 420 ppm. This molecule showed a Tg in data set [3] of 28.6 °C. For the same molecule, in data set [4], the Elastic modulus worked out at 131.0 MPa, the Elongation at break was determined as 242.7% and the “Tensile modulus at 100%” value was 15.7 MPa. The same molecule came in with a Chromaticity in data set [5] of 60 Pt-Co. In data set [6], the “Hardness/Shore D” value is on record as 43 Shore D. Further, the Acid value in data set [7] was 0.05 KOH/g. The same molecule showed a Water content in data set [8] of 0.02%.
`CCCCOC(=O)C=C(CC(=O)OCCCC)C(=O)OCCCC` [Example 25, tributyl aconitate] showed a Compatibility in data set [1] of 12.7 mL. In data set [2], the “Residual amounts of fat-soluble pigments” value was 865 ppm and the “Residual amounts of water-soluble pigments” value came out at 454 ppm. Moreover, in data set [3], the Tg was found to be 28.2 °C. For the same molecule, in data set [4], the Elastic modulus came to 156.4 MPa, the Elongation at break worked out at 226.5% and the “Tensile modulus at 100%” value is on record as 17.2 MPa. The molecule also had a Chromaticity in data set [5] of 50 Pt-Co. The “Hardness/Shore D” value in data set [6] is on record as 45 Shore D. In data set [7], this molecule had an Acid value of 0.05 KOH/g. The Water content in data set [8] was 0.03%.
For `CCCCOC(=O)C=C(CC(=O)OCCCC)C(=O)OCCCC` [Example 26, tributyl aconitate], in data set [1], the Compatibility is given as 12.2 mL. For the same molecule, in data set [2], the “Residual amounts of fat-soluble pigments” value is on record as 2015 ppm and the “Residual amounts of water-soluble pigments” value came to 465 ppm. Moreover, the Tg in data set [3] turned out to be 28.8 °C. In addition, in data set [4], the Elastic modulus is 178.3 MPa, the Elongation at break is 234.1% and the “Tensile modulus at 100%” value was 17.5 MPa. In addition, the Chromaticity in data set [5] is 70 Pt-Co. Moreover, the “Hardness/Shore D” value in data set [6] is reported as 45 Shore D. For the same molecule, the Acid value in data set [7] was 0.05 KOH/g. For the same molecule, in data set [8], the Water content amounted to 0.04%.
In data set [1], `CCCCOC(=O)C=C(CC(=O)OCCCC)C(=O)OCCCC` [Example 27, tributyl aconitate] registered a Compatibility of 12.4 mL. Also, in data set [2], the “Residual amounts of fat-soluble pigments” value stood at 4650 ppm and the “Residual amounts of water-soluble pigments” value came to 415 ppm. The Tg in data set [3] amounted to 28.5 °C. In data set [4], the Elastic modulus came to 166.7 MPa, the Elongation at break was determined as 230.3% and the “Tensile modulus at 100%” value is 17.3 MPa. Also, the Chromaticity in data set [5] is reported as 200 Pt-Co. For the same molecule, the “Hardness/Shore D” value in data set [6] came out at 45 Shore D. For the same molecule, the Acid value in data set [7] is on record as 0.05 KOH/g. In addition, in data set [8], the Water content amounted to 0.05%.
As to `CCCCOC(=O)C=C(CC(=O)OCCCC)C(=O)OCCCC` [Example 28, tributyl aconitate], the Compatibility in data set [1] stood at 14.4 mL. For the same molecule, in data set [2], the “Residual amounts of fat-soluble pigments” value turned out to be 1658 ppm and the “Residual amounts of water-soluble pigments” value was determined as 408 ppm. In data set [3], this molecule had a Tg of 28.6 °C. Besides, in data set [4], the Elastic modulus was found to be 88.5 MPa, the Elongation at break is 248.6% and the “Tensile modulus at 100%” value worked out at 15.2 MPa. In data set [5], this molecule gave a Chromaticity of 40 Pt-Co. In data set [6], the “Hardness/Shore D” value is reported as 42 Shore D. In data set [7], the Acid value is reported as 0.05 KOH/g. In data set [8], this molecule came in with a Water content of 0.04%.
For `CCCCOC(=O)C=C(CC(=O)OCCCC)C(=O)OCCCC` [Example 29, tributyl aconitate], the Compatibility in data set [1] is on record as 14.9 mL. In data set [2], the “Residual amounts of fat-soluble pigments” value is 435 ppm and the “Residual amounts of water-soluble pigments” value was 1302 ppm. In data set [3], this molecule returned a Tg of 28.8 °C. For the same molecule, in data set [4], the Elastic modulus came out at 92.6 MPa, the Elongation at break turned out to be 251.6% and the “Tensile modulus at 100%” value is reported as 15.4 MPa. In data set [5], this molecule came in with a Chromaticity of 60 Pt-Co. For the same molecule, the “Hardness/Shore D” value in data set [6] came to 42 Shore D. Further, the Acid value in data set [7] is recorded as 0.05 KOH/g. Further, the Water content in data set [8] is 0.03%.
Turning to `CCCCOC(=O)C=C(CC(=O)OCCCC)C(=O)OCCCC` [Example 30, tributyl aconitate], the Compatibility in data set [1] was determined as 13.2 mL. Further, in data set [2], the “Residual amounts of fat-soluble pigments” value turned out to be 463 ppm and the “Residual amounts of water-soluble pigments” value was 1501 ppm. For the same molecule, in data set [3], the Tg worked out at 28.9 °C. Besides, in data set [4], the Elastic modulus is 134.8 MPa, the Elongation at break came out at 241.7% and the “Tensile modulus at 100%” value came to 15.8 MPa. For the same molecule, the Chromaticity in data set [5] came to 65 Pt-Co. Moreover, the “Hardness/Shore D” value in data set [6] came out at 43 Shore D. The Acid value in data set [7] was 0.05 KOH/g. In data set [8], this molecule had a Water content of 0.04%.
On to `CCCCOC(=O)C=C(CC(=O)OCCCC)C(=O)OCCCC` [Example 31, tributyl aconitate], for which, in data set [1], the Compatibility is reported as 12.5 mL. In data set [2], the “Residual amounts of fat-soluble pigments” value came out at 427 ppm and the “Residual amounts of water-soluble pigments” value is recorded as 1715 ppm. The molecule also gave a Tg in data set [3] of 29.6 °C. Besides, in data set [4], the Elastic modulus was 157.6 MPa, the Elongation at break turned out to be 231.5% and the “Tensile modulus at 100%” value came out at 17.2 MPa. For the same molecule, the Chromaticity in data set [5] is listed as 60 Pt-Co. In addition, the “Hardness/Shore D” value in data set [6] stood at 45 Shore D. Further, the Acid value in data set [7] came to 0.05 KOH/g. This molecule showed a Water content in data set [8] of 0.03%.
